In ChEMBL document CHEMBL5370591, “A Potent and Narrow-Spectrum Antibacterial against Clostridioides difficile Infection” (J Med Chem, 2023):
Values after ≈ are worked out from the molar mass of the structure shown.

Each compound was assayed on Clostridioides difficile (assay: Antibacterial activity against Clostridium difficile ATCC 43255 measured after 48 hrs by two fold serial dilution method).
Assay type: functional

| SMILES | MIC [µg/mL] |
| --- | --- |
| FC(F)(F)c1ccc(Oc2ccc(-c3noc(-c4cn[nH]n4)n3)cc2)cc1 | > 128 |
| FC(F)(F)c1ccc(Oc2ccc(-c3noc(-c4n[nH]cc4Cl)n3)cc2)cc1 | > 128 |
| Oc1ccc(-c2nc(-c3ccc(OC4CC4)cc3)no2)cc1 | > 128 |
| Oc1ccc(-c2nc(-c3ccc4[nH]c5ccccc5c4c3)no2)cc1 | > 128 |
| C[C@@H](N)c1nc(-c2ccc(OC3CCCC3)cc2)no1 | > 128 |
| Nc1cc(-c2nc(-c3ccc(Oc4ccc(C(F)(F)F)cc4)cc3)no2)cnc1O | > 128 |
| O=C(NNC(=O)c1ccc(OC2CCCC2)cc1)c1ccc(O)cc1 | > 128 |
| FC(F)(F)c1ccc(Oc2ccc(-c3noc(-c4c[nH]cn4)n3)cc2)cc1 | 8 (≈ 21.5 µM) |
| O=C1C[C@@H](c2nc(-c3ccc(Oc4ccc(C(F)(F)F)cc4)cc3)no2)CN1 | > 128 |
| Oc1ccc(-c2nc(-c3ccc(OC4CCNCC4)cc3)no2)cc1 | 64 (≈ 190 µM) |
| Nc1cc(Oc2ccccc2)ccc1-c1noc(-c2ccc(O)cc2)n1 | > 128 |
| FC(F)(F)c1ccc(Oc2ccc(-c3noc(-c4n[nH]cc4Nc4cc5ccccc5[nH]4)n3)cc2)cc1 | > 128 |
| O=C(Nc1c[nH]nc1-c1nc(-c2ccc(Oc3ccc(C(F)(F)F)cc3)cc2)no1)c1ccccn1 | > 128 |
| c1cc2cc(-c3nc(-c4ccc5c(c4)OCO5)no3)ccc2[nH]1 | > 128 |
| O=[N+]([O-])c1c[nH]nc1-c1nc(-c2ccc(Oc3ccccc3)cc2)no1 | > 128 |
| Cl.Nc1nc(-c2ccc(OC3CCCC3)cc2)no1 | > 128 |
| C#CCCOc1ccc(-c2noc(-c3ccc(O)cc3)n2)cc1 | > 128 |
| Oc1ccc(-c2nc(-c3ccc4c(c3)OCO4)no2)cc1 | > 128 |
| Nc1cc(-c2noc(-c3ccc(O)cc3)n2)ccc1Oc1ccccc1 | > 128 |
| O=[N+]([O-])c1cc(Oc2ccc(C(F)(F)F)cc2)cnc1-c1noc(-c2ccc(O)cc2)n1 | > 128 |
| O=C(O)c1ccc(-c2nc(-c3ccc(OC4CCCC4)cc3)no2)cc1 | > 128 |
| Oc1ccc(/C=C/c2nc(-c3ccc(OC4CCCC4)cc3)no2)cc1 | 64 (≈ 184 µM) |

| SMILES | MIC [µg/mL] |
| --- | --- |
| c1cc2cc(-c3nc(-c4ccc5c(c4)CCN5)no3)ccc2[nH]1 | > 128 |
| Oc1ccc(-c2nc(-c3ccc(C(O)C(F)(F)F)cc3)no2)cc1 (configuration not stated) | 32 (≈ 95.2 µM) |
| Nc1ccc(-c2nc(-c3ccc(OC4CCCC4)cc3)no2)cc1 | > 128 |
| Oc1ccc(-c2cc(-c3ccc(Oc4ccccc4)cc3)no2)cc1 | > 128 |
| CC(C)(C)OC(=O)N1CCC(Nc2c[nH]nc2-c2nc(-c3ccc(Oc4ccc(C(F)(F)F)cc4)cc3)no2)CC1 | > 128 |
| Oc1cc(-c2nc(-c3ccc(Oc4ccc(C(F)(F)F)cc4)cc3)no2)cc(F)c1O | > 128 |
| Oc1ccc(-c2nc(-c3ccc(Oc4ccc(C(F)(F)F)cc4)nc3)no2)cc1 | > 128 |
| FC(F)(F)c1ccc(Oc2ccc(-c3noc(-c4ccc(Br)cc4)n3)cc2)cc1 | > 128 |
| CCCCNc1c[nH]nc1-c1nc(-c2ccc(Oc3ccc(C(F)(F)F)cc3)cc2)no1 | > 128 |
| Oc1cccc(/C=C/c2nc(-c3ccc(OC4CCCC4)cc3)no2)c1 | > 128 |
| Clc1nc(-c2ccc(OC3CCCC3)cc2)no1 | > 128 |
| Oc1ccc(-c2nc(-c3ccc4oc5ccc(F)cc5c4c3)no2)cc1 | > 128 |
| CN1CCC(Oc2ccc(-c3noc(-c4nc([N+](=O)[O-])c[nH]4)n3)cc2)C1.Cl (configuration not stated) | > 128 |
| CCCOc1ccc(-c2noc(-c3ccc(O)cc3)n2)cc1 | > 128 |
| COc1ccc(-c2noc(-c3ccc(O)cc3)n2)cc1 | > 128 |
| Clc1ccc(N2CCN(c3noc(-c4ccc5[nH]ccc5c4)n3)CC2)cc1Cl | > 128 |
| Oc1ccc(-c2nc(-c3ccc4oc5ccccc5c4c3)no2)cc1 | > 128 |
| CN1CCN(c2ccc(-c3noc(-c4ccc(O)cc4)n3)cc2)CC1 | > 128 |
| OCC#Cc1c[nH]nc1-c1nc(-c2ccc(Oc3ccc(C(F)(F)F)cc3)cc2)no1 | > 128 |
| FC(F)(F)c1ccc(Oc2ccc(-c3noc(-c4n[nH]cc4NC4CCCCC4)n3)cc2)cc1 | > 128 |
| O=[N+]([O-])c1ccc(-c2nc(-c3ccc(Oc4ccc(C(F)(F)F)cc4)cc3)no2)cc1 | > 128 |
| NC1CCN(c2ccc(-c3noc(-c4ccc(O)cc4)n3)cc2)CC1 | 64 (≈ 190 µM) |

| SMILES | MIC [µg/mL] |
| --- | --- |
| Oc1ccc(-n2cc(-c3ccc(Oc4ccccc4)cc3)nn2)cc1 | > 128 |
| Oc1ccc(-c2nc(-c3ccc(Oc4ccccc4)c(Br)c3)no2)cc1 | > 128 |
| c1nc2cc(-c3nc(-c4ccc(OC5CCCC5)cc4)no3)ccc2[nH]1 | 128 (≈ 370 µM) |
| CCOc1ccc(-c2noc(-c3ccc(O)cc3)n2)cc1 | > 128 |
| Cl.NCCCOc1ccc(-c2noc(-c3ccc(O)cc3)n2)cc1 | 64 |
| O=[N+]([O-])c1cn(CCO)c(-c2nc(-c3ccc(OC4CCCC4)cc3)no2)n1 | > 128 |
| CC(C)(C)Oc1ccc(-c2noc(-c3ccc(O)cc3)n2)cc1 | > 128 |
| FC(F)(F)c1ccc(Oc2ccc(-c3noc(-c4cn[nH]c4)n3)cc2)cc1 | > 128 |
| FC(F)(F)c1ccc(Oc2ccc(-c3noc(-c4n[nH]cc4Nc4n[nH]c5ccccc45)n3)cc2)cc1 | > 128 |
| Oc1ccc(-c2nc(-c3ccc(Oc4ccccc4CBr)cc3)no2)cc1 | 8 (≈ 18.9 µM) |
| CC(C)S(=O)(=O)Oc1ccc(-c2noc(-c3ccc(O)cc3)n2)cc1 | > 128 |
| FC(F)(F)c1ccc(Oc2ccc(-c3noc(-c4n[nH]cc4NC4CCCC4)n3)cc2)cc1 | > 128 |
| Oc1ccc(-c2nc(-c3ccc(OC4CCC4)cc3)no2)cc1 | > 128 |
| FC(F)(F)Oc1ccc(-c2noc(-c3ccc4[nH]ccc4c3)n2)cc1 | > 128 |
| Nc1c[nH]nc1-c1nc(-c2ccc(Oc3ccc(C(F)(F)F)cc3)cc2)no1 | > 128 |
| Oc1ccc(-c2nc(N3CCN(c4cccc(Cl)c4)CC3)no2)cc1 | > 128 |
| Cl.O=[N+]([O-])c1c[nH]c(-c2nc(-c3ccc(CN4CCCC4)cc3)no2)n1 | > 128 |
| COc1ccc(-c2nc(-c3ccc(Oc4ccc(C(F)(F)F)cc4)cc3)no2)cc1OC | > 128 |
| c1cc2cc(-c3nc(-c4ccc5occc5c4)no3)ccc2[nH]1 | > 128 |
| Oc1ccc(-c2nc(-c3ccc(OC(F)(F)F)cc3)no2)cc1 | 64 (≈ 199 µM) |
| CS(=O)(=O)Nc1ccc(-c2nc(-c3ccc(OC4CCCC4)cc3)no2)cc1 | > 128 |
| Oc1ccc(Cc2nc(-c3ccc(OC4CCCC4)cc3)no2)cc1 | 16 (≈ 47.6 µM) |

| SMILES | MIC [µg/mL] |
| --- | --- |
| O=C(Nc1c[nH]nc1-c1nc(-c2ccc(Oc3ccc(C(F)(F)F)cc3)cc2)no1)c1ccccc1 | > 128 |
| CCCCOc1ccc(-c2noc(-c3ccc(O)cc3)n2)cc1 | > 128 |
| Oc1ccc(-c2nc(-c3ccc4oc5ccc(C(F)(F)F)cc5c4c3)no2)cc1 | > 128 |
| FC(F)(F)c1ccc(Oc2ccc(-c3noc(-c4n[nH]cc4Nc4c[nH]c5ncccc45)n3)cc2)cc1 | > 128 |
| C[C@@H](NC(=O)OC(C)(C)C)C(=O)N[C@H](C)c1nc(-c2ccc(OC3CCCC3)cc2)no1 | > 128 |
| C[C@@H](NC(=O)OC(C)(C)C)c1nc(-c2ccc(OC3CCCC3)cc2)no1 | > 128 |
| Clc1cccc(N2CCN(c3noc(-c4ccc5[nH]ccc5c4)n3)CC2)c1 | > 128 |
| Cl.NCc1ccc(-c2nc(-c3ccc(OC4CCCC4)cc3)no2)cc1 | 8 |
| Oc1ccc(-c2nc(-c3ccc(N4CCOCC4)cc3)no2)cc1 | > 128 |
| O=C(c1ccc(-c2noc(-c3ccc(O)cc3)n2)cc1)C(F)(F)F | 8 (≈ 23.9 µM) |
| COc1cc(-c2nc(-c3ccc(Oc4ccc(C(F)(F)F)cc4)cc3)no2)cc(F)c1O | 16 (≈ 35.8 µM) |
| COc1ccc(-c2nc(-c3ccc(Oc4ccc(C(F)(F)F)cc4)cc3)no2)cc1[N+](=O)[O-] | > 128 |
| Oc1ccc(-c2nc(N3CCN(c4ccccc4)CC3)no2)cc1 | > 128 |
| Cl.Oc1ccc(-c2nc(-c3ccc(OC4CCNC4)cc3)no2)cc1 (configuration not stated) | 64 |
| Cl.NCCCCc1nc(-c2ccc(OC3CCCC3)cc2)no1 | 128 |
| COc1ccc(-c2noc(-c3ccc(O)cc3)n2)cc1OC | > 128 |
| N#Cc1ccc(Oc2ccc(-c3noc(-c4ccc(O)cc4)n3)cc2)cc1 | > 128 |
| Nc1cncc(-c2nc(-c3ccc(Oc4ccc(C(F)(F)F)cc4)cc3)no2)c1 | > 128 |
| O=[N+]([O-])c1ccc(-c2nc(-c3ccc(OC4CCCC4)cc3)no2)cc1 | > 128 |
| Cl.O=[N+]([O-])c1c[nH]c(-c2nc(-c3ccc(OC4CCNCC4)cc3)no2)n1 | > 128 |
| Cn1c(-c2nc(-c3ccc(OC4CCCC4)cc3)no2)cnc1[N+](=O)[O-] | 32 (≈ 90.1 µM) |
| Oc1ccc(Oc2ccc(-c3noc(-c4ccc(O)cc4)n3)cc2)cc1 | 64 (≈ 185 µM) |

| SMILES | MIC [µg/mL] |
| --- | --- |
| O=[N+]([O-])c1ccc(-c2noc(-c3ccc4[nH]ccc4c3)n2)cc1 | > 128 |
| FC(F)(F)c1ccc(Oc2ccc(-c3noc(-c4n[nH]cc4Br)n3)cc2)cc1 | > 128 |
| C#CCOc1ccc(-c2noc(-c3ccc(O)cc3)n2)cc1 | 128 (≈ 438 µM) |
| c1cc(-c2noc(-c3ccc4c(c3)CCN4)n2)ccc1OC1CCCC1 | > 128 |
| Oc1ccc(-c2nc(-c3ccc(Oc4ccc(C(F)(F)F)cc4)cc3)no2)cn1 | > 128 |
| Oc1ccc(Nc2nc(-c3ccc(OC4CCCC4)cc3)no2)cc1 | 32 (≈ 94.8 µM) |
| COc1ccc2oc3ccc(-c4noc(-c5n[nH]cc5[N+](=O)[O-])n4)cc3c2c1 | 64 (≈ 170 µM) |
| O=[N+]([O-])c1c[nH]c(Nc2c[nH]nc2-c2nc(-c3ccc(Oc4ccc(C(F)(F)F)cc4)cc3)no2)c1 | 8 (≈ 16.1 µM) |
| Nc1ccc(-c2nc(-c3ccc(Oc4ccc(C(F)(F)F)cc4)cc3)no2)cc1F | > 128 |
| FC(F)(F)c1ccc(Oc2ccc(-c3noc(-c4n[nH]cc4I)n3)cc2)cc1 | > 128 |
| FC(F)(F)c1ccc(Oc2ccc(-c3noc(-c4nc[nH]n4)n3)cc2)cc1 | > 128 |
| COC(OC)c1ccc(-c2noc(-c3ccc(O)cc3)n2)cc1 | > 128 |
| CCC(C)Nc1c[nH]nc1-c1nc(-c2ccc(Oc3ccc(C(F)(F)F)cc3)cc2)no1 (configuration not stated) | > 128 |
| FC(F)(F)c1ccc(Oc2ccc(-c3noc(-c4ccncc4)n3)cc2)cc1 | > 128 |
| Oc1nc(-c2ccc(OC3CCCC3)cc2)no1 | 64 (≈ 260 µM) |
| Fc1ccc2oc3ccc(-c4noc(-c5ccc6[nH]ccc6c5)n4)cc3c2c1 | > 128 |
| c1cc2cc(-c3nc(-c4ccc(OC5CCCC5)cc4)no3)ccc2[nH]1 | 8 (≈ 23.2 µM) |
| O=C1C[C@H](c2nc(-c3ccc(Oc4ccc(C(F)(F)F)cc4)cc3)no2)CN1 | > 128 |
| Fc1ccccc1-c1noc(-c2ccc3[nH]ccc3c2)n1 | > 128 |
